Read-outs that look alike come from different tables or passages of the source.
Tests used:
PKR(G332S) = PKR(G332S) (Homo sapiens, UniProt P30613, G332S); assay: Luminescence Assay (Kinase Glo Plus), PKR G332S; assay type: biochemical; conditions: read-out: AC50 (PKRG332S)
Protocol: (§1) For each tested compound, the ability to activate PKR was determined using the following Luminescence Assay. The effect of phosphorylation of adenosine-5′-diphosphate (ADP) by PKR is determined by the Kinase Glo Plus Assay (Promega) in the presence or absence of FBP (D-fructose-1,6-diphosphate; BOC Sciences, CAS: 81028-91-3) as follows. Unless otherwise indicated, all reagents are purchased from Sigma-Aldrich. All reagents are prepared in buffer containing 50 mM Tris-HCl, 100 mM KCl, 5 mM MgCl2, and 0.01% Triton X100, 0.03% BSA, and 1 mM DTT. Enzyme and PEP (phosphoenolpyruvate) are added at 2× to all wells of an assay-ready plate containing serial dilutions of test compounds or DMSO vehicle. Final enzyme concentrations for PKR(wt), PKR(R510Q), and PKR(G332S) are 0.8 nM, 0.8 nM, and 10 nM respectively. Final PEP concentration is 100 μM. The Enzyme/PEP mixture is incubated with compounds for 30 minutes at RT before the assay is initiated with the addition of 2×ADP and KinaseGloPlus. Final concentration of ADP is 100 μM. […] For assays containing FBP, that reagent is added at 30 μM upon reaction initiation. Reactions are allowed to progress for 45 minutes at RT until luminescence is recorded by the BMG PHERAstar FS Multilabel Reader. The compound is tested in triplicate at concentrations ranging from 42.5 μM to 2.2 nM in 0.83% DMSO. AC50 measurements were obtained by the standard four parameter fit algorithm of ActivityBase XE Runner (max, min, slope and AC50). The AC50 value for a compound is the concentration (μM) at which the activity along the four parameter logistic curve fit is halfway between minimum and maximum activity.
(§2) As set forth in Tables 2 and 3 below and in FIG. 1, AC50 values are defined as follows: ≤0.1 μM (+++); >0.1 μM and ≤1.0 μM (++); >1.0 μM and ≤40 μM (+); >40 μM (0).

PKR-R510Q [1] = biological target: T1, PKR-R510Q (Homo sapiens, UniProt P30613, R510Q); assay: Luminescence Assay (Kinase Glo Plus), PKR R510Q; assay type: biochemical; conditions: read-out: AC50 (PKRR510Q)
Protocol: as §1, §2

wt-PKR = wt-PKR (Homo sapiens, UniProt P30613); assay: Enzyme assay of Example 3 (kinetic parameters, activation), wt-PKR; assay type: biochemical
Protocol: (§3) Tests were conducted in the presence and absence of fructose-1,6-bisphosphate (FBP), a known allosteric activator of PKR.

PKR-R510Q [2] = biological target: T1, PKR-R510Q; assay: Enzyme assay of Example 3 (kinetic parameters, activation), PKR-R510Q; assay type: biochemical; conditions: for Vmax (normalized): 2 μM Compound 1, normalized within row
Protocol: as §3

[3] = biological target: T2, wt-PKR in mature human erythrocytes (Homo sapiens, UniProt P30613); assay: PKR activation in human red blood cells ex vivo (Biovision Pyruvate Kinase Assay); assay type: cell-based; conditions: human RBCs
T2 construct: evaluated in purified RBCs purchased from Research Blood Components; host or cells: purified human red blood cells from donors
Protocol: The activation of wt-PKR by Compound 1 in mature human erythrocytes ex vivo was evaluated in purified RBCs purchased from Research Blood Components. Cells treated with Compound 1 for 3 hr in glucose-containing media were washed, lysed, and assayed using a Biovision Pyruvate Kinase Assay (K709-100). The assay was repeated multiple times to account for donor-to-donor variability and the relatively narrow dynamic range.

PKR in mouse RBCs = biological target: T3, PKR in mouse RBCs (Mus musculus, UniProt P53657); assay: PKR activation in mouse red blood cells; assay type: cell-based
T3 construct: Mouse RBCs were isolated fresh from whole blood using a Ficoll gradient; endogenous in cells; host or cells: mouse red blood cells isolated fresh from whole blood
Source text: Mouse RBCs were isolated fresh from whole blood using a Ficoll gradient and assayed with methods similar to those used in the human RBCs assays.

[4] = tested on: 2,3-DPG levels in whole blood; assay: PK/PD study in wild type mice, 2,3-DPG levels in blood; assay type: in vivo, Balb/c mice; conditions: oral QD x7, doses ≥120 mg/kg (120 and 240 mg/kg), blood 24 h after dosing
Protocol: (§4) Two pharmacokinetic (PK)/phamacodynamic (PD) studies were conducted in Balb/c mice that were administered Compound 1 once daily by oral gavage (formulated in 10% Cremophor EL/10% PG/80% DI water) for 7 days (QD×7) at doses of 0 (vehicle), 3.75, 7.5, 15, 30, 60 mg/kg (Study 1); 0 (vehicle), 7.5, 15, 30, 60, 120, or 240 mg/kg (Study 2). On the 7th day, whole blood was collected 24 hours after dosing and snap frozen. Samples were later thawed and analyzed by LC/MS for 2,3-DPG and ATP levels.

[5] = PK/PD study in wild type mice, tolerability; assay type: in vivo; conditions: oral QD x7, both studies
Protocol: as §4

[6] = PK/PD study in wild type mice, exposure; assay type: in vivo, Balb/c mice; conditions: oral; for AUC(0-t): Balb/c, mouse, in vivo, read-out: AUC0-24
Protocol: as §4

2,3-DPG blood levels = assay: SAD/MAD study in healthy volunteers, blood 2,3-DPG levels (LC-MS/MS); assay type: in vivo, human
Source text: (§5) This is a first-in-human (FIH), Phase 1 study of Compound 1 that will characterize the safety, PK, and PD of Compound 1 after a single dose and after repeated dosing first in healthy adult volunteers and then in adolescents or adults with sickle cell disease. Initially, a dose range of Compound 1 in single ascending dose (SAD) escalation cohorts will be explored in healthy subjects. Enrollment of healthy subjects into 2-week multiple ascending dose (MAD) escalation cohorts will be initiated once the safety and PK from at least two SAD cohorts is available to inform the doses for the 2-week MAD portion of the study. The MAD cohorts will then run in parallel to the single dose cohorts. A single dose cohort is planned to understand food effects (FE) on the PK of Compound 1. […] Multiple dose studies in SCD subjects will then be initiated upon completion of MAD studies in healthy volunteers. Compound 1 will be administered in 25 mg and 100 mg tablets delivered orally.
(§6) Four healthy SAD cohorts were evaluated at doses of 200, 400, 700, and 1000 mg, and four healthy MAD cohorts received 200 to 600 mg total daily doses for 14 days at QD or BID dosing (100 mg BID, 200 mg BID, 300 mg BID, and 400 mg QD). In the food effect (FE) cohort, 10 healthy subjects received 200 mg of Compound 1 QD with and without food.
In the SAD cohorts, the subjects' blood 2,3-DPG levels were measured periodically after dosing by a qualified LC-MS/MS method for the quantitation of 2,3-DPG in blood. Decreased 2,3-DPG blood levels were observed 6 hours following a single dose of Compound 1 at all dose levels (earlier timepoints were not collected). Maximum decreases in 2,3-DPG levels generally occurred ˜24 hours after the first dose with the reduction sustained ˜48-72 hr postdose. Table 12 reports the median percentage change in 2,3-DPG blood levels, relative to baseline, measured over time in healthy volunteers after a single dose of Compound 1 (200 mg, 400 mg, 700 mg, or 1000 mg) or placebo. Accordingly, the median reduction in the concentration of 2,3-DPG, relative to baseline, was at least about 30% at all dose levels tested 24 hours after administration of the single dose.
In the MAD cohorts, the subjects' blood 2,3-DPG levels were measured periodically after dosing by a qualified LC-MS/MS method for the quantitation of 2,3-DPG in blood. The maximum decrease in 2,3-DPG on Day 14 was 55% from baseline (median). […] Table 13 reports the median percentage change in 2,3-DPG blood levels, relative to baseline, measured over time after the first dose on days 1 and 14 in healthy volunteers who received daily doses of Compound 1 (100 mg BID, 200 mg BID, or 300 mg BID) or placebo for 14 days. Accordingly, the median reduction in the concentration of 2,3-DPG, relative to baseline, was at least about 25% at all dose levels tested 24 hours after administration of the first dose on day 1 and at least about 40% at all dose levels tested 24 hours after administration of the first dose on day 14.
The following procedures are employed for the analysis of ATP and 2,3-DPG in human whole blood K2EDTA using a protein precipitation extraction procedure and analysis by LC-MS/MS.

ATP blood levels = assay: SAD/MAD study in healthy volunteers, blood ATP levels (LC-MS/MS); assay type: in vivo, human; conditions: MAD cohorts, 60 hours after the last dose
Source text: This is a first-in-human (FIH), Phase 1 study of Compound 1 that will characterize the safety, PK, and PD of Compound 1 after a single dose and after repeated dosing first in healthy adult volunteers and then in adolescents or adults with sickle cell disease. Initially, a dose range of Compound 1 in single ascending dose (SAD) escalation cohorts will be explored in healthy subjects. Enrollment of healthy subjects into 2-week multiple ascending dose (MAD) escalation cohorts will be initiated once the safety and PK from at least two SAD cohorts is available to inform the doses for the 2-week MAD portion of the study. The MAD cohorts will then run in parallel to the single dose cohorts. […]
Four healthy SAD cohorts were evaluated at doses of 200, 400, 700, and 1000 mg, and four healthy MAD cohorts received 200 to 600 mg total daily doses for 14 days at QD or BID dosing (100 mg BID, 200 mg BID, 300 mg BID, and 400 mg QD). […]
In the MAD cohorts, the subjects' blood ATP levels were measured on day 14 by a qualified LC-MS/MS method for the quantitation of ATP in blood. […] Table 14 reports the median percentage change in blood ATP levels, relative to baseline, measured over time after the first dose on day 14 in healthy volunteers who received daily doses of Compound 1 (100 mg BID, or 200 mg BID) or placebo for 14 days. […]

[7] = SAD/MAD study in healthy volunteers, safety; assay type: in vivo, human; conditions: SAD and MAD cohorts of healthy volunteers
Source text: as §5, with “orally. Four healthy SAD cohorts were evaluated at doses of 200, 400, 700, and 1000 mg, and four healthy MAD cohorts received 200 to 600 mg total daily doses for 14 days at QD or BID dosing (100 mg BID, 200 mg BID, 300 mg BID, and 400 mg QD). In the food effect (FE) cohort, 10 healthy subjects received 200 mg of Compound 1 QD with and without food.” for “orally.”

[8] = SAD/MAD/food effect study in healthy volunteers, pharmacokinetics; assay type: in vivo, human
Source text: as §5, §6

[9] = PEP at or below Km, rate of ATP formation

T2 sequence (P30613 whole entry): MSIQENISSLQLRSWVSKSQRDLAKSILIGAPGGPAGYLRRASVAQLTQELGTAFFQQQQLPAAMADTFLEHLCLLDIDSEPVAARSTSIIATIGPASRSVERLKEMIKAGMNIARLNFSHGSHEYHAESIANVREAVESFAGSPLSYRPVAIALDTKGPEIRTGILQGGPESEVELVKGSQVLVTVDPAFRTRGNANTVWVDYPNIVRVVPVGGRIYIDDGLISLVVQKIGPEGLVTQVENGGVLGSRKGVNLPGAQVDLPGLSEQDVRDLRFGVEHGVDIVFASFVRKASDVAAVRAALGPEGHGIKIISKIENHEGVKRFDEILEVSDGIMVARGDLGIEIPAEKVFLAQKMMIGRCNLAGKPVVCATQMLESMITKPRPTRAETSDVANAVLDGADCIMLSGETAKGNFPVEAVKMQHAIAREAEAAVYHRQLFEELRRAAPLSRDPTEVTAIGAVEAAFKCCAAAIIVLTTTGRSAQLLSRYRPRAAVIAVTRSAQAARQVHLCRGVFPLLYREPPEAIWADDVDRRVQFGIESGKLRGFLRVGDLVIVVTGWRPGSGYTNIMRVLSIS
wt-PKR, sequence (P30613 whole entry): as above
PKR(G332S), sequence (P30613 whole entry G332S): as the sequence (P30613 whole entry) above, with G332S counted along it
T1 sequence (P30613 whole entry R510Q): as the sequence (P30613 whole entry) above, with R510Q counted along it
T3 sequence (P53657 whole entry): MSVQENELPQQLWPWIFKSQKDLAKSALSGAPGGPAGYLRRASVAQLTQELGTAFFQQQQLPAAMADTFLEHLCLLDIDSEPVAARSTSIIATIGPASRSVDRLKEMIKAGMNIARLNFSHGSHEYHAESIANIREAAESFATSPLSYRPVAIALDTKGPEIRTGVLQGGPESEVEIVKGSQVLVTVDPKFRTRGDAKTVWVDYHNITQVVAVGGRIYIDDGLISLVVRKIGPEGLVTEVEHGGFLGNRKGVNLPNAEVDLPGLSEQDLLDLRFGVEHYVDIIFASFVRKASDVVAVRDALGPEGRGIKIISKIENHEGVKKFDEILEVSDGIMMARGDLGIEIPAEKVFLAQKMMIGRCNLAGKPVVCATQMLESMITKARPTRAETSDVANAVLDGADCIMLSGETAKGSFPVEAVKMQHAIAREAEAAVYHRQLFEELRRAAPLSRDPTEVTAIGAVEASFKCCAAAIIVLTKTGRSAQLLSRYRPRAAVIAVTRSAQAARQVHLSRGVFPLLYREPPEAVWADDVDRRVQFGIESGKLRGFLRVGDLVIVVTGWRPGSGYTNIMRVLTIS

SMILES: O=C(c1cn[nH]c1-c1ccccc1)N1CC2=C(C1)CN(S(=O)(=O)c1ccc3c(c1)OCCO3)C2 [Compound 8]
- AC50 (PKR(G332S)): > 40000 nM
- AC50 (PKR-R510Q [1]): > 40000 nM

SMILES: O=C([C@H](O)c1cccnc1)N1CC2=C(C1)CN(S(=O)(=O)c1cnc3c(c1)OCCO3)C2 [Compound 6]
- AC50 (PKR(G332S)): 100 to 1000 nM
- AC50 (PKR-R510Q [1]): 1000 to 40000 nM

SMILES: O=C([C@H](CO)c1ccccc1)N1CC2=C(C1)CN(S(=O)(=O)c1cnc3c(c1)OCCO3)C2 (single isomer, unassigned) [Compound 1]
- AC50 (PKR(G332S)): 100 to 1000 nM
- AC50 (PKR-R510Q [1]): ≤ 100 nM
- Vmax (normalized) (wt-PKR; 30 μM FBP, 2 μM Compound 1, normalized within row): 1.16
- Vmax (normalized) (wt-PKR; No FBP, 2 μM Compound 1, normalized to 1.00 relative to other values in same row): 1.14
- AC50 (wt-PKR; PEP at or below Km): < 50 nM
- Maximum-fold Activation (wt-PKR; [9]): <2.0
- Vmax (normalized) (PKR-R510Q [2]; 30 μM FBP): 1.29
- Vmax (normalized) (PKR-R510Q [2]; No FBP): 1.56
- AC50 (PKR-R510Q [2]; PEP at or below Km): < 100 nM
- Maximum-fold Activation (PKR-R510Q [2]; [9]): <3.0
- EC50 ([3]; 3 hr treatment, individual replicates): < 50 nM
- Max-Min (%), Mean (mean maximum activation increase) ([3]; mean of replicates): <100%
- Emax ([3]; mean of replicates, read-out: Max-Min (%), Mean (mean maximum activation increase)): < 100%
- EC50 (PKR in mouse RBCs; individual replicates, read-out: EC50): < 125 nM
- EC50 (PKR in mouse RBCs; mean of replicates, read-out: EC50 (nM), Mean): < 125 nM
- Reduction of 2,3-DPG levels [4]: > 30%
- Adverse clinical signs [5]: No adverse clinical signs were observed
- Body weight change compared with vehicle group [5]: no differences in body weight change
- AUC(0-t) ([6]; doses ≥60 mg/kg): > 4000 ng·h/mL
- AUC(0-t) ([6]; doses ≥120 mg/kg): > 5200 ng·h/mL
- Dose dependence of exposure [6]: dose-proportional
- 2,3-DPG levels after final dose (2,3-DPG blood levels; MAD cohorts, 72 hours after the final dose on Day 14): had not returned to baseline levels
- Mean maximum reduction in concentration of 2,3-DPG (2,3-DPG blood levels; MAD study): at least 50%
- Median reduction in concentration of 2,3-DPG relative to baseline (2,3-DPG blood levels; MAD, all dose levels, 24 hours after first dose on day 1): at least 25%
- Median reduction in concentration of 2,3-DPG relative to baseline (2,3-DPG blood levels; MAD, all dose levels, 24 hours after first dose on day 14): at least 40%
- Time of maximum decrease in 2,3-DPG levels after first dose (2,3-DPG blood levels; SAD cohorts): ~24 h
- Time postdose to which 2,3-DPG reduction was sustained (2,3-DPG blood levels; SAD cohorts): 48 to 72 h
- Mean maximum reduction in concentration of 2,3-DPG (2,3-DPG blood levels; SAD study): at least 40%
- Median reduction in concentration of 2,3-DPG relative to baseline (2,3-DPG blood levels; all single dose levels tested, 24 hours after administration): at least 30%
- PD half-life (2,3-DPG response) (2,3-DPG blood levels; healthy volunteers, calculated): ~20 h
- ATP levels relative to baseline after last dose (ATP blood levels): remained elevated
- Serious adverse events / AEs leading to withdrawal [7]: No serious adverse events (SAEs) or AEs leading to withdrawal were reported
- PK linearity, multiple doses ([8]; 100-300 mg BID, 400 mg QD): linear PK
- Tmax ([8]; human, plasma, healthy volunteers, oral, postdose, read-out: Median Tmax): 1 h
- Dose dependence of single dose exposure ([8]; single doses ≥700 mg): greater than dose-proportional
